Experimental data from patent publication US9463338B2, “Derivatives of the sinapinic acid” (PHARMASYNTHESE, priority 2013, dated 2016).
“And” between values parts separate entries of the source, which are not always exact repeats. Equal entries are not always repeated. Marks after values point to notes of the source that are not given here.

Tests used:
[1] = system: explants of adipose tissues; test: Slimming effect: glycerol released in culture medium of adipose tissue explants; format: cell-based, human
Method: The activity of the compounds of the invention on the adipocytes has been assessed. To do so, tests have been carried out on explants of adipose tissues that are kept alive according to the following experimental protocol. The products to be tested are introduced in the culture medium. After 9 days of treatment, the activity is assessed through an assay of the glycerol released in the culture medium. In order to be able to compare the potential activity of the molecules, caffeine (Sigma ref C-0750 batch 127F0396), which is known for its activity on the adipocytes (Studlar M. […] The explants are prepared from a tummy tuck ([…]-AB-40) carried out on a donor. 54 explants of tissues have been prepared and kept alive in a medium which is supplemented with penicillin/streptomycin antibiotics (Gibco ref 15140 batch 918578) at 37° C. and with 5% of CO2. The treatment has been carried out, on 3 explants, by incorporating 100 μl of the product (which is in turn at a 2% concentration in the adequate solvent, DMSO) in 2 ml of the culture medium on days J0, J2, J3, J5 and J7. Caffeine has been diluted to the desired concentration in the culture medium on these same days. The control explants have undergone no treatment. On J0, the 3 explants have been collected and frozen at -80° C. On J9, the remaining explants have been collected and preserved under the same conditions. The extraction of lipids from the culture medium has been carried out according to a tested procedure. The assay of the glycerol of the culture medium has been carried out using a glycerol assay kit (Megazyme, K-GROL) in the form of 96-well microplates and reading has been made at 340 nm with a Tecam Infinite M200 microplate reader associated to the Magellan software.

[2] = system: normal human dermal fibroblasts; test: Production of progerin in monolayer cultures of normal human dermal fibroblasts (ELISA); format: cell-based; conditions: for Progerin % DMSO / Progerin Average / Progerin, individual values / Progerin Difference (%): 96 hours; for Progerin Difference (%): vs DMSO; for neo synthesis of progerin: under the retained experimental conditions
Text: In order to study the influence of the compounds of the invention on the concentration of progerin in the cells, the assay method described by C. Verdy, J.-E. Branka and N. Mekideche in <<Quantitative assessment of lactate and progerine production in normal human cutaneous cells during normal ageing: effect of an alaria esculenta extract>>, Int. J. Cosmetic Science, 2011, 1-5, has been used.
(§1) The test system consists of monolayers of adult normal human dermal fibroblasts obtained by cultivating cells collected from a tummy tuck carried out on a person.
Insulin at 10 nM has been used as a reference product in this study. […]
(§2) The compound to be tested is solubilized in 1 mg/ml in DMSO, then diluted in the cells incubation medium, with a constant concentration of 0.1% (v/v) in DMSO.
Upon completion of the incubation period, on the one hand, the progerin has been quantified in the cellular lysates (obtained by ultrasonic action) through a sensitive and specific ELISA assay, and on the other hand, the proteins that are contained in the cellular lysates have been quantified by a spectrophotometric method (Bradford method—Bradford M. (1976) Anal. Biochem., 72, 248-254).
(§3) The statistical significance of the differences that have been observed between the <<Control>> and the <<reference product>> conditions, has been assessed through a Student test. The statistical significance of the differences that have been observed between the <<Check>> and the <<test products>> conditions, has been assessed through a one-way analysis of variance (One Way ANOVA) followed by a Holm-Sidak test (*:p<0.05).

[3] = system: normal human dermal fibroblasts; test: Neo synthesis of elastin in monolayer cultures of normal human dermal fibroblasts; format: cell-based; conditions: 10 ng/ml, 96 hours
Method: as §1
The used reference activator is the ascorbic acid at 100 μg/ml.
The cells have been incubated for 96 hours in the absence (control) or in the presence of the reference product or of increasing concentrations of the active ingredient that is being tested (10 ng/ml; 100 ng/ml; 500 ng/ml).
as §2
Upon completion of the incubation period, the elastin contained in the incubation medium of the explants has been quantified by a spectrophotometric method.
Upon completion of the incubation period, the proteins contained in the cellular lysate have been quantified by a spectrophotometric method (Bradford method—Bradford M. (1976) Anal. Biochem., 72, 248-254).
The results are given in the form of μg of elastin per mg of protein (average+/− the standard deviation, S.D.).

[4] = ORAC (Oxygen Radical Absorbance Capacity) antioxidant activity; format: biochemical; conditions: average of 3 measurements
Text: The ORAC (Oxygen Radical Absorbance Capacity) method, described in Cao, G., Alessio, H. M., Cutler, R. G. Free radical Biology & Medecine 1993, 14: 303-311<<Oxygen-Radical Absorbance Capacity assay for antioxydants>> and Benderitter, M., Vincent-Genid, L., Pouget, J. P., Voisin, P. Radiation Research 2003; 159 (4): 471-483 <<The cell membrane as a biosensor of oxydative stress induced by radiation exposure:multiparameter investigation>>, has been used for measuring the anti-oxidant capability of the compounds of the invention.
By convention, the ORAC antioxidant activity of any molecule is measured in comparison with a recognized reference which is an analog of vitamin E, the trolox (6-hydroxy-2,5,7,8-tetramethylchroman-2-carboxylic acid), the anti-oxidant capability of 1 μM (micro mole) of trolox corresponding to 1 ORAC unit.
The ORAC values are commonly reported in μmol TE/g (in micromole of Trolox Equivalent per gram of product to be tested).
Given these definitions, the trolox has an ORAC index of about 3995 units.
The ORAC values of the compounds 26 and 34 have been measured (average of 3 measurements).

[5] = system: normal human dermal fibroblasts; test: Production of type I pro-collagen in monolayer cultures of normal human dermal fibroblasts (E.I.A.); format: cell-based; conditions: 48 hours; for Procollagen Difference (%): vs DMSO
Method: as §1
The used reference activator is the Transforming Growth Factor β (TGF-β) at 1 ng/ml. […]
as §2
Upon completion of the incubation period, the type I pro-collagen contained in the fibroblasts incubation media has been quantified using a sensitive and specific E.I.A. kit.
Upon completion of the incubation period, the proteins contained in the cellular lysates have been quantified by a spectrophotometric method (Bradford method—Bradford M. (1976) Anal. Biochem., 72, 248-254).
as §3
The results are given in the form of μg of type I pro-collagen per mg of protein (average+/− the standard deviation, S.D.) and are reported in the following Table 5.

With `CCCCCCCCCCCCCCCCNC(=O)/C=C/c1cc(OC)c(OC(C)=O)c(OC)c1` [Compound 22] as the molecule, how does the “Glycerol % in comparison with caffeine” value ([1]; after 9 days of treatment) read?
The value was 124%.

What about the “slimming action higher than that of caffeine” value ([1]; after 9 days of treatment) of the same molecule?
Its value is 24%.

And the “slimming activity in comparison with caffeine” value ([1]; after 9 days of treatment)?
Its value is “enhanced slimming activity”.

What about the “Glycerol Average” value ([1]; glycerol released in culture medium after 9 days, 100 μl of 2% product in DMSO in 2 ml medium on J0, J2, J3, J5, J7, 3 explants) of the same molecule?
Its value is 0.114 mg/mL.

What about the “Progerin % DMSO” value ([2]; 10 ng/ml) of the same molecule?
The value was 75.4%.

And the “Progerin Average” value ([2]; 10 ng/ml)?
Its value is 837.7 ng/mg of protein.

What about the “Progerin, individual values” ([2]; 10 ng/ml) of the same molecule?
Its value is 880.7 ng/mg of protein and 801.5 ng/mg of protein and 830.7 ng/mg of protein.

What about the “Progerin Difference (%)” value ([2]; 10 ng/ml) of the same molecule?
Its value is −24.6%.

And the “Progerin % DMSO” value ([2]; 100 ng/ml)?
Its value is 52.9%.

And the “Progerin Average” value ([2]; 100 ng/ml)?
The value was 586.9* ng/mg of protein.

And the “Progerin, individual values” ([2]; 100 ng/ml)?
The value was 711.0 ng/mg of protein and 548.8 ng/mg of protein and 500.9 ng/mg of protein.

What about the “Progerin Difference (%)” value ([2]; 100 ng/ml) of the same molecule?
The value was −47.1%.

And the “Progerin % DMSO” value ([2]; 500 ng/ml)?
Its value is 67.8%.

And the “Progerin Average” value ([2]; 500 ng/ml)?
Its value is 752.5 ng/mg of protein.

And the “Progerin, individual values” ([2]; 500 ng/ml)?
Its value is 967.8 ng/mg of protein and 727.4 ng/mg of protein and 562.4 ng/mg of protein.

What about the “Progerin Difference (%)” value ([2]; 500 ng/ml) of the same molecule?
The value was −32.2%.

What about the “neo synthesis of progerin” value [2] of the same molecule?
The value was “significantly decrease”.

And the “increase of the neo synthesis of elastin” value [3]?
Its value is “+16.7%”.

What does the source list for `COc1ccc2[nH]cc(CCNC(=O)/C=C/c3cc(OC)c(OC(C)=O)c(OC)c3)c2c1` [Compound 31, 4-acetoxy-3,5-dimethoxy-N-(5-methoxytryptamyl)-cinnamamide]?
ORAC Antioxidant activity [4]: 4874 ± 216 μmol TE/g; melting point: 148 °C

Which “Progerin % DMSO” value ([2]; 50 ng/ml) does the source give for `COc1cc(/C=C/C(=O)NCCc2ccc(O)cc2)cc(OC)c1OC(C)=O` [Compound 36, 4-acetoxy-3,5-dimethoxy-N-(4′-hydroxyphenylethyl)-cinnamamide] here?
The value was 84.0%.

And the “Progerin Average” value ([2]; 50 ng/ml)?
The value was 932.6 ng/mg of protein.

What about the “Progerin, individual values” ([2]; 50 ng/ml) of the same molecule?
Its value is 1552.2 ng/mg of protein and 690.1 ng/mg of protein and 555.6 ng/mg of protein.

What about the “Progerin Difference (%)” value ([2]; 50 ng/ml) of the same molecule?
The value was −16.0%.

And the “Progerin % DMSO” value ([2]; 500 ng/ml)?
The value was 23.7%.

And the “Progerin Average” value ([2]; 500 ng/ml)?
The value was 263.6* ng/mg of protein.

And the “Progerin, individual values” ([2]; 500 ng/ml)?
Its value is 249.8 ng/mg of protein and 288.8 ng/mg of protein and 252.1 ng/mg of protein.

And the “Progerin Difference (%)” value ([2]; 500 ng/ml)?
The value was −76.3%.

What about the “Progerin % DMSO” value ([2]; 5000 ng/ml) of the same molecule?
Its value is 18.8%.

And the “Progerin Average” value ([2]; 5000 ng/ml)?
Its value is 208.2* ng/mg of protein.

And the “Progerin, individual values” ([2]; 5000 ng/ml)?
The value was 215.8 ng/mg of protein and 200.8 ng/mg of protein and 207.9 ng/mg of protein.

And the “Progerin Difference (%)” value ([2]; 5000 ng/ml)?
The value was −81.2%.

What about the “neo synthesis of progerin” value [2] of the same molecule?
The value was “significantly decrease”.

And the “Procollagen % DMSO” value ([5]; 50 ng/ml)?
The value was 121.5%.

What about the “Procollagen Average” value ([5]; 50 ng/ml) of the same molecule?
The value was 63.7* pg/mg of protein.

What about the “Procollagen, individual values” ([5]; 50 ng/ml) of the same molecule?
The value was 68.1 pg/mg of protein and 57.8 pg/mg of protein and 65.3 pg/mg of protein.

What about the “Procollagen Difference (%)” value ([5]; 50 ng/ml) of the same molecule?
The value was 21.5%.

What about the “Procollagen % DMSO” value ([5]; 500 ng/ml) of the same molecule?
Its value is 121.8%.

What about the “Procollagen Average” value ([5]; 500 ng/ml) of the same molecule?
The value was 63.9* pg/mg of protein.

And the “Procollagen, individual values” ([5]; 500 ng/ml)?
Its value is 59.2 pg/mg of protein and 65.1 pg/mg of protein and 67.2 pg/mg of protein.

What about the “Procollagen Difference (%)” value ([5]; 500 ng/ml) of the same molecule?
The value was 21.8%.

What about the “Procollagen % DMSO” value ([5]; 5000 ng/ml) of the same molecule?
The value was 129.0%.

And the “Procollagen Average” value ([5]; 5000 ng/ml)?
Its value is 67.7* pg/mg of protein.

And the “Procollagen, individual values” ([5]; 5000 ng/ml)?
Its value is 73.8 pg/mg of protein and 64.8 pg/mg of protein and 64.4 pg/mg of protein.

What about the “Procollagen Difference (%)” value ([5]; 5000 ng/ml) of the same molecule?
Its value is 29.0%.

And the “increase of the neo synthesis of elastin” value [3]?
Its value is “+63.7%”.

What about the melting point of the same molecule?
The melting point was 99 °C.
